Data published in the supplement of paper PMC10307832.

Legend:
Assay in all cases: relative viability (nuclei count vs DMSO), 5 days (fraction); higher = more cells survive
Idelalisib + Alpelisib = compound: CC[C@H](Nc1ncnc2[nH]cnc12)c1nc2cccc(F)c2c(=O)n1-c1ccccc1 [Idelalisib] + Cc1nc(NC(=O)N2CCC[C@H]2C(N)=O)sc1-c1ccnc(C(C)(C)C(F)(F)F)c1 [Alpelisib] (partner 2 µM)
Method in brief: (§1)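 Dosing by pin tool came one day after lung cancer cell lines were seeded in 1536-well plates, using either one drug or a fixed anchor-drug dose plus five library-drug doses (not always all listed) in √10 steps. After 5 days, nuclei were counted on 4× images. Relative viability is treated-well nuclei count divided by vehicle-well nuclei count, and values are medians of duplicate plates.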

Pemetrexed + Luminespib = compound: Nc1nc2[nH]cc(CCc3ccc(C(=O)N[C@@H](CCC(=O)O)C(=O)O)cc3)c2c(=O)[nH]1 [Pemetrexed] + CCNC(=O)c1noc(-c2cc(C(C)C)c(O)cc2O)c1-c1ccc(CN2CCOCC2)cc1 [Luminespib] (partner 0.01 µM)
Method in brief: as §1

Pemetrexed + Pictilisib = compound: Nc1nc2[nH]cc(CCc3ccc(C(=O)N[C@@H](CCC(=O)O)C(=O)O)cc3)c2c(=O)[nH]1 [Pemetrexed] + CS(=O)(=O)N1CCN(Cc2cc3nc(-c4cccc5[nH]ncc45)nc(N4CCOCC4)c3s2)CC1 [Pictilisib] (partner 1 µM)
Method in brief: as §1

Pemetrexed + Lapatinib = compound: Nc1nc2[nH]cc(CCc3ccc(C(=O)N[C@@H](CCC(=O)O)C(=O)O)cc3)c2c(=O)[nH]1 [Pemetrexed] + CS(=O)(=O)CCNCc1ccc(-c2ccc3ncnc(Nc4ccc(OCc5cccc(F)c5)c(Cl)c4)c3c2)o1 [Lapatinib] (partner 2 µM)
Method in brief: as §1

UMC-11
relative viability (Idelalisib + Alpelisib; first compound 0.04 µM): 1.15 | relative viability (Idelalisib + Alpelisib; first compound 0.1265 µM): 0.999 | relative viability (Idelalisib + Alpelisib; first compound 0.4 µM): 0.966 | relative viability (Idelalisib + Alpelisib; first compound 1.265 µM): 0.987 | relative viability (Idelalisib + Alpelisib; first compound 4 µM): 1.05 | relative viability (Pemetrexed + Luminespib; first compound 0.002 µM): 0.989 | relative viability (Pemetrexed + Luminespib; first compound 0.006325 µM): 0.972 | relative viability (Pemetrexed + Luminespib; first compound 0.02 µM): 1.03 | relative viability (Pemetrexed + Luminespib; first compound 0.06325 µM): 1.09 | relative viability (Pemetrexed + Luminespib; first compound 0.2 µM): 0.923 | relative viability (Pemetrexed + Pictilisib; first compound 0.002 µM): 0.809 | relative viability (Pemetrexed + Pictilisib; first compound 0.006325 µM): 0.807 | relative viability (Pemetrexed + Pictilisib; first compound 0.02 µM): 0.837 | relative viability (Pemetrexed + Pictilisib; first compound 0.06325 µM): 0.781 | relative viability (Pemetrexed + Pictilisib; first compound 0.2 µM): 0.556 | relative viability (Pemetrexed + Lapatinib; first compound 0.002 µM): 1.24 | relative viability (Pemetrexed + Lapatinib; first compound 0.006325 µM): 0.952 | relative viability (Pemetrexed + Lapatinib; first compound 0.02 µM): 1.11 | relative viability (Pemetrexed + Lapatinib; first compound 0.06325 µM): 1.05 | relative viability (Pemetrexed + Lapatinib; first compound 0.2 µM): 0.746
